How the values were obtained:
[1] = tested on: PAH model in rats receiving an injection of monocrotaline; assay: Long-term efficacy of fasidotril in the monocrotaline PAH model in rats; format: in vivo, rats of the Wistar type
Description: The long-term efficacy of fasidotril was studied on a recognised PAH model in rats receiving an injection of the toxic alkaloid, monocrotaline (Rosenberg and Rabinovitch, Am. J. Physiol., 1988, 255, 484). After a single injection of the toxin (60 mg/kg, s.c.), the pulmonary arterial endothelium is wounded and the animals develop pulmonary arterial smooth muscle hypertrophy with severe pulmonary hypertension and right ventricular hypertrophy.
A group of 50 rats of the Wistar type weighing approximately 300 g was used, of which 10 were used as controls while 40 received a dose of 60 mg/kg of monocrotaline s.c. The latter were divided into two groups of 20 animals: the first group was fed with a standard laboratory feed while the second group was fed with a feed containing fasidotril at a concentration such that the rats received a dose of approximately 200 mg/kg/day.

[2] = tested on: PAH model (monocrotaline, Wistar rats); settings: literature: Schermuly et al., Amer. J. Resp. Crit. Care Med. 2004, 169, 39; cited from earlier work

Row | Compound | slowing down of the rate of development of the disease ([1]; PAH model, treatment with fasidotril, conclusion from mortality and heart weight data) | mortality ([1]; after one month, monocrotaline 60 mg/kg s.c., fasidotril in feed approximately 200 mg/kg/day, "monocrotaline only" group 45%) [%] | increase in the weight of the right ventricle (right heart hypertrophy) ([1]; after one month, monocrotaline 60 mg/kg s.c., fasidotril in feed approximately 200 mg/kg/day, monocrotaline only +74%) | increase in the weight of the right auricle (right heart hypertrophy) ([1]; after one month, monocrotaline 60 mg/kg s.c., fasidotril in feed approximately 200 mg/kg/day, monocrotaline only +140%) | activity in the PAH model [2]
1 | CC(=O)SC[C@@H](Cc1ccc2c(c1)OCO2)C(=O)N[C@@H](C)C(=O)OCc1ccccc1 [fasidotril, benzyl (S,S)-2-(2-acetylsulphanylmethyl-3-benzo[1,3]dioxol-5-ylpropionylamino)propionate] | approximately a half | 20 | +50% | +57% | 
2 | CCCc1nn(C)c2c(=O)[nH]c(-c3cc(S(=O)(=O)N4CCN(C)CC4)ccc3OCC)nc12 [sildenafil] |  |  |  |  | active

From patent US20100234393A1, “USE OF A VASOPEPTIDASE INHIBITOR FOR THE TREATMENT OF PULMONARY ARTERIAL HYPERTENSION” (priority 2006, published 2010)
